Data on 17 compounds can be found in patent US20260232658A1, “AZETIDINYL BENZOXAZOLE COMPOUNDS AND THEIR USE AS MER AND AXL INHIBITORS” (DONG-A ST CO., LTD., priority 2022, published 2026).

Bounds are passed on as bounds.

A word on the IC50: it is the concentration that inhibits the measured activity by half.

One assay concerns MC-38 cells. Put plainly: MC-38 Efficacy Assay (tumor growth inhibition). It is filed as in vivo, Female C57BL/6 mice. The following applies: once a day for 21 days, subcutaneous MC-38 tumors in C57BL/6 mice.
A further assay deals with T1, TYRO3 (455-end) (Homo sapiens, UniProt Q06418).
T1 construct: TYRO3 (455-end); purchased SignalChem, Canada
T1 sequence (Q06418 455-890 limits assumed): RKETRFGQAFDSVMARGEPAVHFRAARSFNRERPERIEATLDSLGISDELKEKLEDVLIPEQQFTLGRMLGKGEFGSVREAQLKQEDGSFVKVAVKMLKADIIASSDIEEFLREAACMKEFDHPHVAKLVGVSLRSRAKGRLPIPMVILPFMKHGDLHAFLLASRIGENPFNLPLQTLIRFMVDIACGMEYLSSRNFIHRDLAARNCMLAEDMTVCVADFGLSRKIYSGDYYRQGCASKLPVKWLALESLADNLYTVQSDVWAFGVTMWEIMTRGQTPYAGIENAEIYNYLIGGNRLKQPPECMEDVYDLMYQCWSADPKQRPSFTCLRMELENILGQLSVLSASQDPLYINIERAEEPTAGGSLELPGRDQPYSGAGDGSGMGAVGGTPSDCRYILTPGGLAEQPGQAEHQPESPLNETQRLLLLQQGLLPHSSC
The experiment in a line: HTRF kinase activity biochemical assay, TYRO3.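 Note: biotinylated tyrosine kinase substrate phosphorylation detected via streptavidin-XL665 and Eu3+-cryptate anti-phospho antibody time-resolved fluorescence, read after 1 h detection at room temperature, 384-well format.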 The following applies: recombinant kinase, 10 uM ATP, 30 minutes pre-incubation; read-out: HTRF TYRO IC50. For orientation: In TR-FRET formats the signal depends on donor and acceptor labels being close together.

The next assay has as its target T2, human AXL (473-end) (Homo sapiens, UniProt P30530).
T2 construct: human AXL (473-end); purchased SignalChem, Canada
T2 sequence (P30530 473-894 limits assumed): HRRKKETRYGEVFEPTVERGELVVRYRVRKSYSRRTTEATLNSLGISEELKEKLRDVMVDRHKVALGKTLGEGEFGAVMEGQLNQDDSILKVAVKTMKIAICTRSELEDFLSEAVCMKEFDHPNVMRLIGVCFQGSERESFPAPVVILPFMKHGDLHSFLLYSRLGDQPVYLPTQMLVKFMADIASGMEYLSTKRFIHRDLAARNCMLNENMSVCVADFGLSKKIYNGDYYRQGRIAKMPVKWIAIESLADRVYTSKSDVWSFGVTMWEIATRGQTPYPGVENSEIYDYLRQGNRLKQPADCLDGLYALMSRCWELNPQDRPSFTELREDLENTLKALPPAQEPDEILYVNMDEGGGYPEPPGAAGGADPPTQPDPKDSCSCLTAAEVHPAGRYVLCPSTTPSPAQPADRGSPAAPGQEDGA
The experiment in a line: HTRF kinase activity biochemical assay, AXL.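 Note: phosphorylation of a biotinylated tyrosine kinase substrate detected via Eu3+-cryptate anti-TK antibody and streptavidin-XL665, fluorescence read after a 1 h incubation at room temperature.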 The following applies: recombinant kinase, 10 uM ATP, 30 minutes pre-incubation; read-out: HTRF AXL IC50.

In the next assay the target is T3, human MER (528-end) (Homo sapiens, UniProt Q12866).
T3 construct: human MER (528-end); purchased Carnabio, Japan
T3 sequence (Q12866 528-999 limits assumed): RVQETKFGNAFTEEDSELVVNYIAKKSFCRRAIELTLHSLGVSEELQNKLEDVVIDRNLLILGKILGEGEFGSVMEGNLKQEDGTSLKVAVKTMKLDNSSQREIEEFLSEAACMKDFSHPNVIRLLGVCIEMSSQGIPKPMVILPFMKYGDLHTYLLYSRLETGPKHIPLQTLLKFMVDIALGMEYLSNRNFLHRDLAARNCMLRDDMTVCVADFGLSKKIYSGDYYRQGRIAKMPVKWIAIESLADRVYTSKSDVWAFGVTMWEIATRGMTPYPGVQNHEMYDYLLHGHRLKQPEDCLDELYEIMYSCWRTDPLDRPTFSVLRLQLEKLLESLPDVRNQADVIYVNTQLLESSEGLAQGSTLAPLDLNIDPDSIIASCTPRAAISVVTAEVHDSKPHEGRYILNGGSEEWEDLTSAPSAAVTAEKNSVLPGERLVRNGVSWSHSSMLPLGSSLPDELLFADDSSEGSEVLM
Put plainly: HTRF kinase activity biochemical assay, MER.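 Note: phosphorylation of a biotin-tagged tyrosine kinase substrate detected by Eu3+-cryptate antibody and streptavidin-XL665 time-resolved fluorescence, read after 1 h at room temperature.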 The following applies: recombinant kinase, 10 uM ATP, 30 minutes pre-incubation; read-out: HTRF MERTK IC50.

Consider `Cn1cc(Nc2ccc(C3CN(c4nc5ccc(OCC(C)(C)O)cc5o4)C3)nc2C(N)=O)cn1` [Example 85, 6-{1-[6-(2-hydroxy-2-methylpropoxy)-1,3-benzoxazol-2-yl]azetidin-3-yl}-3-[(1-methyl-1H-pyrazol-4-yl)amino]pyridine-2-carboxamide], for which the “% TGI (dose)” value in the assay with MC-38 cells (10 mg/kg/d) is recorded as 37%. In addition, the figures for the IC50 on TYRO3 (455-end), on human AXL (473-end) and on human MER (528-end) were 1850 nM, 4 nM and 2 nM, respectively.
On to `Cn1cc(Nc2ncc(C3CN(c4nc5ccc(OCc6ccn(C)n6)cc5o4)C3)nc2C(N)=O)cn1` [Example 80, 3-[(1-methyl-1H-pyrazol-4-yl)amino]-6-(1-{6-[(1-methyl-1H-pyrazol-3-yl)methoxy]-1,3-benzoxazol-2-yl}azetidin-3-yl)pyrazine-2-carboxamide], for which, in the assay on MC-38 cells (10 mg/kg/d), the “% TGI (dose)” value was 23%. In addition, the values for the IC50 on TYRO3 (455-end), on human AXL (473-end) and on human MER (528-end) were 48 nM, 1 nM and less than 1 nM, respectively.
With `CC(C)(O)Cn1cc(Nc2ncc(C3CN(c4nc5ccccc5o4)C3)nc2C(N)=O)cn1` [Example 30, 6-[1-(1,3-benzoxazol-2-yl)azetidin-3-yl]-3-{[1-(2-hydroxy-2-methylpropyl)-1H-pyrazol-4-yl]amino}pyrazine-2-carboxamide], the “% TGI (dose)” value with MC-38 cells (10 mg/kg/d) was found to be 33%. Further, the half-inhibitory concentration (IC50) on TYRO3 (455-end) turned out to be 360 nM; at human AXL (473-end), 11 nM; on human MER (528-end), 3 nM.
Turning to `CC(C)(O)Cn1cc(Nc2ncc(C3CN(c4nc5ccc(F)cc5o4)C3)nc2C(N)=O)cn1` [Example 28, 6-[1-(6-fluoro-1,3-benzoxazol-2-yl)azetidin-3-yl]-3-{[1-(2-hydroxy-2-methylpropyl)-1H-pyrazol-4-yl]amino}pyrazine-2-carboxamide], the “% TGI (dose)” value in the assay on MC-38 cells (10 mg/kg/d) was determined as 17%. For the same compound, the IC50 at TYRO3 (455-end) is 150 nM; at human AXL (473-end), 6 nM; on human MER (528-end), 1 nM.
`CN1CCC(Oc2ccc3nc(N4CC(c5cnc(Nc6cnn(C)c6)c(C(N)=O)n5)C4)oc3c2)C1=O` (stereo not drawn) [Example 72, 6-(1-{6-[(1-methyl-2-oxopyrrolidin-3-yl)oxy]-1,3-benzoxazol-2-yl}azetidin-3-yl)-3-[(1-methyl-1H-pyrazol-4-yl)amino]pyrazine-2-carboxamide]: the “% TGI (dose)” value in the assay with MC-38 cells (30 mg/kg/d) is 44%. In addition, the IC50 at TYRO3 (455-end) is 940 nM; at human AXL (473-end) it was 3 nM; on human MER (528-end), 1 nM.
`Cn1cc(Nc2ncc(C3CN(c4nc5ccc(OCCC(C)(C)OP(=O)(O)O)cc5o4)C3)nc2C(N)=O)cn1` [Example 77, 4-{[2-(3-{6-carbamoyl-5-[(1-methyl-1H-pyrazol-4-yl)amino]pyrazin-2-yl}azetidin-1-yl)-1,3-benzoxazol-6-yl]oxy}-2-methylbutan-2-yl dihydrogen phosphate]: the “% TGI (dose)” value with MC-38 cells (15 mg/kg/d) was found to be 39%. Moreover, the IC50 is 3300 nM on TYRO3 (455-end), 54 nM on human AXL (473-end) and 33 nM at human MER (528-end).
Take `Cn1cc(Nc2ncc(C3CN(c4nc5ccc(CO)cc5o4)C3)nc2C(N)=O)cn1` [Example 16, 6-{1-[6-(hydroxymethyl)-1,3-benzoxazol-2-yl]azetidin-3-yl}-3-[(1-methyl-1H-pyrazol-4-yl)amino]pyrazine-2-carboxamide]: the IC50 on TYRO3 (455-end) was determined as 860 nM; on human AXL (473-end) it was 30 nM; on human MER (528-end) it was 7 nM.
Consider `COCCCc1ccc2nc(N3CC(c4cnc(Nc5cnn(C)c5)c(C(N)=O)n4)C3)oc2c1` [Example 33, 6-{1-[6-(3-methoxypropyl)-1,3-benzoxazol-2-yl]azetidin-3-yl}-3-[(1-methyl-1H-pyrazol-4-yl)amino]pyrazine-2-carboxamide], for which the IC50 at TYRO3 (455-end) came to 130 nM; on human AXL (473-end) it was 2 nM; at human MER (528-end) it was 1 nM.
For `Cn1cc(Nc2ccc(C3CN(c4nc5ccc(OCC(C)(C)OC(=O)CN)cc5o4)C3)nc2C(N)=O)cn1` [Example 108, 1-{[2-(3-{6-carbamoyl-5-[(1-methyl-1H-pyrazol-4-yl)amino]pyridin-2-yl}azetidin-1-yl)-1,3-benzoxazol-6-yl]oxy}-2-methylpropan-2-yl glycinate] the same measures were 880 nM, 4 nM and less than 1 nM.
Take `Cn1cnc(-c2ccc3nc(N4CC(c5cnc(Nc6cnn(C)c6)c(C(N)=O)n5)C4)oc3c2)c1` [Example 105, 6-{1-[6-(1-methyl-1H-imidazol-4-yl)-1,3-benzoxazol-2-yl]azetidin-3-yl}-3-[(1-methyl-1H-pyrazol-4-yl)amino]pyrazine-2-carboxamide]: the values for the IC50 on TYRO3 (455-end), at human AXL (473-end) and at human MER (528-end) were 53 nM, 5 nM and less than 1 nM, respectively.
For `CNC(=O)Cc1ccc2nc(N3CC(c4cnc(Nc5cnn(C)c5)c(C(N)=O)n4)C3)oc2c1` [Example 50, 6-(1-{6-[2-(methylamino)-2-oxoethyl]-1,3-benzoxazol-2-yl}azetidin-3-yl)-3-[(1-methyl-1H-pyrazol-4-yl)amino]pyrazine-2-carboxamide] the same measures were 3550 nM, 16 nM and 9 nM.
For `COCCn1cc(Nc2ncc(C3CN(c4nc5ccc(C)cc5o4)C3)nc2C(N)=O)cn1` [Example 55, 3-{[1-(2-methoxyethyl)-1H-pyrazol-4-yl]amino}-6-[1-(6-methyl-1,3-benzoxazol-2-yl)azetidin-3-yl]pyrazine-2-carboxamide] the same measures were 220 nM, 14 nM and 3 nM.
`Cc1ccc2nc(N3CC(c4cnc(Nc5cn[nH]c5)c(C(N)=O)n4)C3)oc2c1` [Example 74, 6-[1-(6-methyl-1,3-benzoxazol-2-yl)azetidin-3-yl]-3-[(1H-pyrazol-4-yl)amino]pyrazine-2-carboxamide]: the half-inhibitory concentration (IC50) at TYRO3 (455-end) was 130 nM; at human AXL (473-end), 4 nM; at human MER (528-end), 2 nM.
For `Cn1cc(Nc2ncc(C3CN(c4nc5ccc(OCc6cn[nH]c6)cc5o4)C3)nc2C(N)=O)cn1` [Example 93, 3-[(1-methyl-1H-pyrazol-4-yl)amino]-6-(1-{6-[(1H-pyrazol-4-yl)methoxy]-1,3-benzoxazol-2-yl}azetidin-3-yl)pyrazine-2-carboxamide], in that order: 44 nM, 2 nM and less than 1 nM.
Turning to `Cn1cc(Nc2ncc(C3CN(c4nc5ccc(OCC(O)CO)cc5o4)C3)nc2C(N)=O)cn1` (stereo not drawn) [Example 43, 6-{1-[6-(2,3-dihydroxypropoxy)-1,3-benzoxazol-2-yl]azetidin-3-yl}-3-[(1-methyl-1H-pyrazol-4-yl)amino]pyrazine-2-carboxamide], the results for the IC50 on TYRO3 (455-end), on human AXL (473-end) and at human MER (528-end) were 2140 nM, 25 nM and 9 nM, respectively.
For `Cn1cc(Nc2ncc(C3CN(c4nc5ccc(OC[C@H]6C[C@H]6CO)cc5o4)C3)nc2C(N)=O)cn1` [Example 58, 6-[1-(6-{1[(1S,2R)-2-(hydroxymethyl)cyclopropyl]methoxy}-1,3-benzoxazol-2-yl)azetidin-3-yl]-3-[(1-methyl-1H-pyrazol-4-yl)amino]pyrazine-2-carboxamide] the same measures were 33 nM, 1 nM and less than 1 nM.
For `Cn1cc(Nc2ncc(C3CN(c4nc5ccc(OCC(C)(C)CO)cc5o4)C3)nc2C(N)=O)cn1` [Example 61, 6-{1-[6-(3-hydroxy-2,2-dimethylpropoxy)-1,3-benzoxazol-2-yl]azetidin-3-yl}-3-[(1-methyl-1H-pyrazol-4-yl)amino]pyrazine-2-carboxamide] the same measures were 26 nM, 1 nM and less than 1 nM.
